Data as given in patent US8192962B2, “Processes for detecting toxic substances” (Daikin Industries, Ltd., priority 2001, dated 2012).

Test system: Stress protein genes
Experiment: DNA chip mRNA expression in yeast, stress protein genes (Table 6)
Assay type: cell-based, Saccharomyces cerevisiae S288C
Experimental: Yeast (Saccharomyces cerevisiae S288C (α SUC2mal mel gap2 CUP1)) were incubated at 25° C. on YPD medium (yeast extract 1%, polypepton 2%, glucose 2%). One of toxic chemical substances was added to the cells at logarithmic growth phase, and the cells were further incubated for two hours. Cells were cultured without any chemical substance in the same condition, and were used as control. Concentrations of the chemical substances were defined to inhibit the growth of the yeast but not lead to death.
After completion of the incubation, the culture was centrifuged to collect the cells. To the cells, sodium acetate buffer (50 mM sodium acetate, 10 mM EDTA, 1% SDS) was added, and the mixture was shaken at 65° C. for five minutes, followed by returning to room temperature, and obtaining the supernatant, of which the procedures were repeated two times. To the supernatant, ½ amount of a solution of phenol/chloroform was added, and the mixture was centrifuged to give a supernatant, which was added with an equal amount of chloroform, and the mixture was centrifuged to give a supernatant. To the supernatant, an equal amount of isopropanol containing 0.3 M sodium acetate was added, and the mixture was allowed to stand at room temperature for 30 minutes, after which the mixture was centrifuged to give a sediment of the whole RNAs. Seventy % ethanol was added to the sediment, and the mixture was again centrifuged to give a sediment, which was then dried and dissolved in water. mRNA was isolated from the whole RNAs as followings. In view of the fact that a poly A chain is attached to the 3′ terminus of mRNA, a polynucleotide having a poly T structure which was immobilized on the surface of latex beads was used to trap the mRNA, and then the mRNA was washed and eluted with spine column (Oligotex-dT30<Super>mRNA Purification Kit, Takara). Reverse transcription of the mRNA was conducted with a reverse transcriptase (Super Script II Reverse Transcriptase; catalogue No. 18064-014, GibcoBRL) using fluorescence-labeled nucleotides to give cDNAs that were introduced with Cy3-dUTP or Cy5-dUTP during the reverse transcription.
The labeled cDNAs were dissolved in TE buffer (10mM Tris-HCl/1 mM EDTA, pH8.0), and the solution was dropped on the DNA chip containing the whole genes of yeast (DNA Chip Research Inc. Japan) so that the cDNAs were hybridized on the DNA chip at 65° C. for over 12 hours. The fluoresces intensity of the DNA chip was read with a scanner, and the ratio relative to the fluorescence intensity resulting from the absence of chemical substance was estimated as the following, which is shown in Tables 1 to 9: […]

O=[N+]([O-])c1cc[n+]([O-])c2ccccc12 [(5), 4-nitroquinolin-N-oxide]
The level of expressed mRNA in the presence of chemical substance/The level of expressed mRNA in the absence of chemical substance (yeast gene YAL005C): 1.2 | The level of expressed mRNA in the presence of chemical substance/The level of expressed mRNA in the absence of chemical substance (yeast gene YAL015C): 1.1 | The level of expressed mRNA in the presence of chemical substance/The level of expressed mRNA in the absence of chemical substance (yeast gene YBL075C): 1.1 | The level of expressed mRNA in the presence of chemical substance/The level of expressed mRNA in the absence of chemical substance (yeast gene YBL093C): 1.0 | The level of expressed mRNA in the presence of chemical substance/The level of expressed mRNA in the absence of chemical substance (yeast gene YBR044C): 1.4 | The level of expressed mRNA in the presence of chemical substance/The level of expressed mRNA in the absence of chemical substance (yeast gene YBR054W): 0.8 | The level of expressed mRNA in the presence of chemical substance/The level of expressed mRNA in the absence of chemical substance (yeast gene YBR067C): 1.1 | The level of expressed mRNA in the presence of chemical substance/The level of expressed mRNA in the absence of chemical substance (yeast gene YBR072W): 1.2 | The level of expressed mRNA in the presence of chemical substance/The level of expressed mRNA in the absence of chemical substance (yeast gene YBR126C): 0.7 | The level of expressed mRNA in the presence of chemical substance/The level of expressed mRNA in the absence of chemical substance (yeast gene YBR169C): 0.8 | The level of expressed mRNA in the presence of chemical substance/The level of expressed mRNA in the absence of chemical substance (yeast gene YCL035C): 1.5 | The level of expressed mRNA in the presence of chemical substance/The level of expressed mRNA in the absence of chemical substance (yeast gene YCR021C): 0.9 | The level of expressed mRNA in the presence of chemical substance/The level of expressed mRNA in the absence of chemical substance (yeast gene YCR060W): 0.8 | The level of expressed mRNA in the presence of chemical substance/The level of expressed mRNA in the absence of chemical substance (yeast gene YCR083W): 1.6 | The level of expressed mRNA in the presence of chemical substance/The level of expressed mRNA in the absence of chemical substance (yeast gene YDL022W): 0.7 | The level of expressed mRNA in the presence of chemical substance/The level of expressed mRNA in the absence of chemical substance (yeast gene YDL025C): 0.6 | The level of expressed mRNA in the presence of chemical substance/The level of expressed mRNA in the absence of chemical substance (yeast gene YDR033W): 1.1 | The level of expressed mRNA in the presence of chemical substance/The level of expressed mRNA in the absence of chemical substance (yeast gene YDR077W): 0.8 | The level of expressed mRNA in the presence of chemical substance/The level of expressed mRNA in the absence of chemical substance (yeast gene YDR098C): 1.5 | The level of expressed mRNA in the presence of chemical substance/The level of expressed mRNA in the absence of chemical substance (yeast gene YDR155C): 0.8 | The level of expressed mRNA in the presence of chemical substance/The level of expressed mRNA in the absence of chemical substance (yeast gene YDR258C): 1.3 | The level of expressed mRNA in the presence of chemical substance/The level of expressed mRNA in the absence of chemical substance (yeast gene YDR293C): 0.6 | The level of expressed mRNA in the presence of chemical substance/The level of expressed mRNA in the absence of chemical substance (yeast gene YDR436W): 0.7 | The level of expressed mRNA in the presence of chemical substance/The level of expressed mRNA in the absence of chemical substance (yeast gene YDR513W): 0.9 | The level of expressed mRNA in the presence of chemical substance/The level of expressed mRNA in the absence of chemical substance (yeast gene YDR519W): 0.7 | The level of expressed mRNA in the presence of chemical substance/The level of expressed mRNA in the absence of chemical substance (yeast gene YEL030W): 0.4 | The level of expressed mRNA in the presence of chemical substance/The level of expressed mRNA in the absence of chemical substance (yeast gene YEL039C): 0.9 | The level of expressed mRNA in the presence of chemical substance/The level of expressed mRNA in the absence of chemical substance (yeast gene YER042W): 1.1 | The level of expressed mRNA in the presence of chemical substance/The level of expressed mRNA in the absence of chemical substance (yeast gene YER057C): 0.8 | The level of expressed mRNA in the presence of chemical substance/The level of expressed mRNA in the absence of chemical substance (yeast gene YER103W): 1.1 | The level of expressed mRNA in the presence of chemical substance/The level of expressed mRNA in the absence of chemical substance (yeast gene YER125W): 1.4 | The level of expressed mRNA in the presence of chemical substance/The level of expressed mRNA in the absence of chemical substance (yeast gene YFL014W): 1.0 | The level of expressed mRNA in the presence of chemical substance/The level of expressed mRNA in the absence of chemical substance (yeast gene YFL016C): 1.3 | The level of expressed mRNA in the presence of chemical substance/The level of expressed mRNA in the absence of chemical substance (yeast gene YFL020C): 1.1 | The level of expressed mRNA in the presence of chemical substance/The level of expressed mRNA in the absence of chemical substance (yeast gene YFR052W): 1.4 | The level of expressed mRNA in the presence of chemical substance/The level of expressed mRNA in the absence of chemical substance (yeast gene YGL073W): 1.7 | The level of expressed mRNA in the presence of chemical substance/The level of expressed mRNA in the absence of chemical substance (yeast gene YGL115W): 1.2 | The level of expressed mRNA in the presence of chemical substance/The level of expressed mRNA in the absence of chemical substance (yeast gene YGL181W): 1.1 | The level of expressed mRNA in the presence of chemical substance/The level of expressed mRNA in the absence of chemical substance (yeast gene YGR088W): 1.0 | The level of expressed mRNA in the presence of chemical substance/The level of expressed mRNA in the absence of chemical substance (yeast gene YHL028W): 1.1 | The level of expressed mRNA in the presence of chemical substance/The level of expressed mRNA in the absence of chemical substance (yeast gene YHL046C): 0.9 | The level of expressed mRNA in the presence of chemical substance/The level of expressed mRNA in the absence of chemical substance (yeast gene YHR030C): 1.8 | The level of expressed mRNA in the presence of chemical substance/The level of expressed mRNA in the absence of chemical substance (yeast gene YHR057C): 1.3 | The level of expressed mRNA in the presence of chemical substance/The level of expressed mRNA in the absence of chemical substance (yeast gene YHR104W): 1.1 | The level of expressed mRNA in the presence of chemical substance/The level of expressed mRNA in the absence of chemical substance (yeast gene YIL011W): 1.1
